# According to patent US9868692B2, “Compounds and compositions for intracellular delivery of therapeutic agents” (MODERNATX, Inc., priority 2015, dated 2018):
# Tests used:
# [1] = Residual lipid level in liver of rats (UPLC-MS quantification); type: in vivo; settings: rat, liver, iv, intravenous, 48 hours, read-out: Liver level
# Procedure: (§1) To pre-weighed tissues, Milli-Q water was added (900 μL water per 100 mg tissue). Tissues were homogenized using an Omni probe homogenizer until uniform. 50 μL of samples and matrix calibration standards were aliquoted into a 96-well plate. 50 μL of blank matrix for matrix blanks and control blanks were aliquoted. 400 μL IS spiking solution were manually added to all samples except matrix blanks. 400 μL of 50:50 ACN:IPA were manually added to matrix blanks. The plate was covered and the samples vortexed and centrifuged for 5 minutes at >3000 rpm. 200 μL of the samples were transferred into a clean 96-well plate for analysis. […] Detection was based on electrospray ionization (ESI) in positive mode using a Sciex API5500 Mass Spectrometer.
# (§2) The expression of hEPO in rats intravenously administered a nanoparticle composition at a dose of 0.2 mpk or 2.0 mpk was measured at 6 hours. […] Liver and spleen levels represent the average values calculated for 3 rats in each group.
# (§3) The expression of hEPO and lipid levels in the liver and spleen in rats intravenously administered a nanoparticle composition at a dose of 0.2 mpk was measured at various timepoints. […] Lipids were formulated according to the standard MC3 formulation described above.
# [2] = Particle size, polydispersity index (and zeta potential) of nanoparticle compositions, Zetasizer Nano ZS; type: physicochemical; settings: Table 1A formulations
# From the text: Nanoparticle compositions may be characterized by a variety of methods. For example, microscopy (e.g., transmission electron microscopy or scanning electron microscopy) may be used to examine the morphology and size distribution of a nanoparticle composition. Dynamic light scattering or potentiometry (e.g., potentiometric titrations) may be used to measure zeta potentials. Dynamic light scattering may also be utilized to determine particle sizes. Instruments such as the Zetasizer Nano ZS (Malvern Instruments Ltd, Malvern, Worcestershire, UK) may also be used to measure multiple characteristics of a nanoparticle composition, such as particle size, polydispersity index, and zeta potential.
# A Zetasizer Nano ZS (Malvern Instruments Ltd, Malvern, Worcestershire, UK) can be used to determine the particle size, the polydispersity index (PDI) and the zeta potential of the nanoparticle compositions in 1×PBS in determining particle size and 15 mM PBS in determining zeta potential.
# [3] = Encapsulation efficiency of RNA, QUANT-IT RIBOGREEN RNA assay; type: physicochemical; settings: Table 1A formulations
# From the text: The efficiency of encapsulation of a therapeutic and/or prophylactic describes the amount of therapeutic and/or prophylactic that is encapsulated or otherwise associated with a nanoparticle composition after preparation, relative to the initial amount provided. The encapsulation efficiency is desirably high (e.g., close to 100%). The encapsulation efficiency may be measured, for example, by comparing the amount of therapeutic and/or prophylactic in a solution containing the nanoparticle composition before and after breaking up the nanoparticle composition with one or more organic solvents or detergents. Fluorescence may be used to measure the amount of free therapeutic and/or prophylactic (e.g., RNA) in a solution. For the nanoparticle compositions described herein, the encapsulation efficiency of a therapeutic and/or prophylactic may be at least 50%, for example 50%, 55%, 60%, 65%, 70%, 75%, 80%, 85%, 90%, 91%, 92%, 93%, 94%, 95%, 96%, 97%, 98%, 99%, or 100%. In some embodiments, the encapsulation efficiency may be at least 80%. In certain embodiments, the encapsulation efficiency may be at least 90%.
# For nanoparticle compositions including an RNA, a QUANT-IT™ RIBOGREEN® RNA assay (Invitrogen Corporation Carlsbad, Calif.) can be used to evaluate the encapsulation of an RNA by the nanoparticle composition. The samples are diluted to a concentration of approximately 5 μg/mL in a TE buffer solution (10 mM Tris-HCl, 1 mM EDTA, pH 7.5). 50 μL of the diluted samples are transferred to a polystyrene 96 well plate and either 50 μL of TE buffer or 50 μL of a 2% Triton X-100 solution is added to the wells. The plate is incubated at a temperature of 37° C. for 15 minutes. The RIBOGREEN® reagent is diluted 1:100 in TE buffer, and 100 μL of this solution is added to each well. The fluorescence intensity can be measured using a fluorescence plate reader (Wallac Victor 1420 Multilablel Counter; Perkin Elmer, Waltham, Mass.) at an excitation wavelength of, for example, about 480 nm and an emission wavelength of, for example, about 520 nm. The fluorescence values of the reagent blank are subtracted from that of each of the samples and the percentage of free RNA is determined by dividing the fluorescence intensity of the intact sample (without addition of Triton X-100) by the fluorescence value of the disrupted sample (caused by the addition of Triton X-100).
# [4] = Residual lipid level in spleen of rats (UPLC-MS quantification); type: in vivo; settings: rat, iv, 48 hours, read-out: Spleen level
# Procedure: as §1, §2, §3
# [5] = Lipid clearance: % dose remaining in liver after administration of Luc formulations; type: in vivo, mice; settings: Table 3D
Compound,PDI [2],EE (%) [3] [%],% Dose Remaining in Liver 6h ([5]; first column of this head) [%],% Dose Remaining in Liver 6h ([5]; second column of this head) [%],also measured
"CCCCCCCCC(CC)OC(=O)CCCCCCCN(CCO)CCCCCCCC(=O)OC(CCCCCCCC)CCCCCCCC (stereo not drawn) [Compound 49, heptadecan-9-yl 8-((2-hydroxyethyl)(8-oxo-8-(undecan-3-yloxy)octyl)amino)octanoate]",0.110,96.86,,,"concentration at 48 h ([1]; 0.2 mg/kg, 0.2 mpk): 6490 ng/g; concentration at 48 h ([1]; 2 mg/kg, 2 mpk): 61400 ng/g; concentration at 48 h ([4]; 0.2 mg/kg, 0.2 mpk): 0.36; concentration at 48 h ([4]; 2 mg/kg, 2 mpk): 0.37"
"CCCCCCCCC(CC)OC(=O)CCCN(CCO)CCCCCCCC(=O)OC(CCCCCCCC)CCCCCCCC (stereo not drawn) [Compound 72, Heptadecan-9-yl 8-((2-hydroxyethyl)(4-oxo-4-(undecan-3-yloxy)butyl)amino)octanoate]",0.11,97.3,,,
"CCCCCCCCC(CC)OC(=O)CCCCCN(CCO)CCCCCCCC(=O)OC(CCCCCCCC)CCCCCCCC (stereo not drawn) [Compound 75, Heptadecan-9-yl 8-((2-hydroxyethyl)(6-oxo-6-(undecan-3-yloxy)hexyl)amino)octanoate]",0.10,98.1,,,
"CCCCCCCCC(CCCCCCCC)OC(=O)CCCCCCCN(CCO)CCCCCC(=O)OC(CCCCCCCC)C1CC1 (stereo not drawn) [Compound 128, Heptadecan-9-yl 8-((6-((1-cyclopropylnonyl)oxy)-6-oxohexyl)(2-hydroxyethyl)amino)octanoate]",0.14,98.2,,,
"CCCCCCCCC(CCCCCCCC)OC(=O)CCCCCCCN(CCO)CCCCCCCC(=O)OCC(CCCCCCC)OC (stereo not drawn) [Compound 148, Heptadecan-9-yl 8-((2-hydroxyethyl)(8-((2-methoxynonyl)oxy)-8-oxooctyl)amino)octanoate]",,,<1,<1,
"CCCCCCCCCC(=O)OCCCCCCCN(CCO)CCCCCCCOC(=O)C(CCCCCCCC)CCCCCCCC [Compound 151, 7-((7-(Decanoyloxy)heptyl)(2-hydroxyethyl)amino)heptyl 2-octyldecanoate]",,,<1,<1,
"CCCCCCCCCOC(=O)CCCCCCCN(CCO)CCCCCCCCCC(CCCCCCCC)CCCCCCCC [Compound 153, Nonyl 8-((2-hydroxyethyl)(10-octyloctadecyl)amino)octanoate]",,,<1,<1,

# Now from value to molecule, other results behind:
PDI [2],EE (%) [3] [%],% Dose Remaining in Liver 6h ([5]; first column of this head) [%],% Dose Remaining in Liver 6h ([5]; second column of this head) [%],Compound,also measured
,,<1,<1,"CCCCCCCCCC(=O)OCCCCCCCN(CCO)CCCCCCCC(=O)OC(CCCCCCCC)CCCCCCCC [Compound 96, 7-((8-(Heptadecan-9-yloxy)-8-oxooctyl)(2-hydroxyethyl)amino)heptyl decanoate]",
0.13,97.4,,,"CCCCCCCCCOC(=O)CCCCCCCN(CCCCCCCC(=O)OC(CCCCCCCC)CCCCCCCC)CCCNC(=O)N(C)C [Compound 110, Heptadecan-9-yl 8-((3-(3,3-dimethylureido)propyl)(8-(nonyloxy)-8-oxooctyl)amino)octanoate]",
0.14,98.2,,,"CCCCCCCCCOC(=O)CCCCCCCN(CCCCCCCC(=O)OC(CCCCCCCC)CCCCCCCC)CCCNC(=S)N(C)C [Compound 111, Heptadecan-9-yl 8-((3-(3,3-dimethylthioureido)propyl)(8-(nonyloxy)-8-oxooctyl)amino)octanoate]",
0.15,99,,,"CCCCCCCCCOC(=O)CCCCCCCN(CCCCCCCC(=O)OC(CCCCCCCC)CCCCCCCC)CCCNC(=S)NC [Compound 113, Heptadecan-9-yl 8-((3-(3-methylthioureido)propyl)(8-(nonyloxy)-8-oxooctyl)amino)octanoate]",
,,<1,<1,"CCCCCCCCC(CCCCCCCC)OC(=O)CCCCCCCN(C)CCCCCCCCCCCC(=O)OCCCCC [Compound 150, Pentyl 12-((8-(heptadecan-9-yloxy)-8-oxooctyl)(methyl)amino)dodecanoate]",
0.072,98.90,,,"CCCCCCCCCOC(=O)CCCCCCCN(CCCCCCCC(=O)OC(CCCCCCCC)CCCCCCCC)C(CO)CO [Compound 156, Heptadecan-9-yl 8-((1,3-dihydroxypropan-2-yl)(8-(nonyloxy)-8-oxooctyl)amino)octanoate]",
0.096,,<1,<1,"CCCCCCCCCOC(=O)CCCCCCCN(CCCCCCCC(=O)OC(CCCCCCCC)CCCCCCCC)C(C)CO (stereo not drawn) [Compound 157, Heptadecan-9-yl 8-((1-hydroxypropan-2-yl)(8-(nonyloxy)-8-oxooctyl)amino)octanoate]",
0.18,99.04,,,"CCCCCCCCCOC(=O)CCCCCCCN(CCCCCCCC(=O)OC(CCCCCCCC)CCCCCCCC)CCCNc1c(N(C)C)c(=O)c1=O [Compound 169, Heptadecan-9-yl 8-((3-((2-(dimethylamino)-3,4-dioxocyclobut-1-en-1-yl)amino)propyl)(8-(nonyloxy)-8-oxooctyl)amino)octanoate]",
0.12,98.24,,,"CCCCCCCCCOC(=O)CCCCCCCN(CCCCCCCC(=O)OC(CCCCCCCC)CCCCCCCC)CCCN/C(=C/[N+](=O)[O-])NC [Compound 170, Heptadecan-9-yl (E)-8-((3-((1-(methylamino)-2-nitrovinyl)amino)propyl)(8-(nonyloxy)-8-oxooctyl)amino)octanoate]",
0.12,98.52,,,"CCCCCCCCCOC(=O)CCCCCCCN(CCCCCCCC(=O)OC(CCCCCCCC)CCCCCCCC)CCCN1C(=O)CNC1=O [Compound 174, Heptadecan-9-yl 8-((3-(2,5-dioxoimidazolidin-1-yl)propyl)(8-(nonyloxy)-8-oxooctyl)amino)octanoate]",
